Source: patent US7666890B2, “Synthesis and herbicidal activity of 1- (2-substituted benzo[d]thiazol-5-yl)-1H-1,2,4-triazol-5(4H)-one derivatives” (Huazhong Normal University, priority 2007, dated 2010)

Tests used:
Experiment in all cases: Test of herbicidal activities (greenhouse pot method)
Type in all cases: in vivo
Settings in all cases: single dose 300 g ai./h, treated before/after germination, 15 days later, greenhouse pot
Amaranthus retroflexus = tested on: Amaranthus retroflexus
Outline: (§1)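 Weeds were sown in soil-filled pots at 15–30 °C and treated once by spray tower at 300 g ai./h, either before emergence or post-emergence at the 2-leaf stage, in three replicates with an untreated control. Symptoms were scored 15 days later into five classes from A (≥90%) to E (<50%).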

Brassica juncea = tested on: Brassica juncea
Outline: as §1

Chenopodium album = tested on: Chenopodium album
Outline: as §1

Digiatria sanguinalis = tested on: Digiatria sanguinalis
Outline: as §1

Echinochloa crusgalli = tested on: Echinochloa crusgalli
Outline: as §1

Setaria viridis = tested on: Setaria viridis
Outline: as §1

Cc1nn(-c2cc3nc(SCc4ccc(F)cc4)sc3cc2Br)c(=O)n1C(F)F [Compound 27]
Herbicidal activity Amaranthus retroflexus (inhibition level) (Amaranthus retroflexus): D (50 ≦ D < 60%) | Herbicidal activity Brassica juncea (inhibition level) (Brassica juncea): A (90 ≦ A ≦ 100%) | Herbicidal activity Chenopodium album (inhibition level) (Chenopodium album): C (60 ≦ C < 80%) | Herbicidal activity Digiatria sanguinalis (inhibition level) (Digiatria sanguinalis): D (50 ≦ D < 60%) | Herbicidal activity Echinochloa crusgalli (inhibition level) (Echinochloa crusgalli): B (80 ≦ B < 90%) | Herbicidal activity Setaria viridis (inhibition level) (Setaria viridis): B (80 ≦ B < 90%)

Cc1nn(-c2cc3nc(SCc4ccc(Cl)cc4)sc3cc2Br)c(=O)n1C(F)F [Compound 25]
Herbicidal activity Amaranthus retroflexus (inhibition level) (Amaranthus retroflexus): E (E < 50%) | Herbicidal activity Brassica juncea (inhibition level) (Brassica juncea): C (60 ≦ C < 80%) | Herbicidal activity Chenopodium album (inhibition level) (Chenopodium album): E (E < 50%) | Herbicidal activity Digiatria sanguinalis (inhibition level) (Digiatria sanguinalis): C (60 ≦ C < 80%) | Herbicidal activity Echinochloa crusgalli (inhibition level) (Echinochloa crusgalli): D (50 ≦ D < 60%) | Herbicidal activity Setaria viridis (inhibition level) (Setaria viridis): B (80 ≦ B < 90%)

Cc1nn(-c2cc3nc(SCc4ccccc4)sc3cc2F)c(=O)n1C(F)F [Compound 11]
Herbicidal activity Amaranthus retroflexus (inhibition level) (Amaranthus retroflexus): B (80 ≦ B < 90%) | Herbicidal activity Brassica juncea (inhibition level) (Brassica juncea): A (90 ≦ A ≦ 100%) | Herbicidal activity Chenopodium album (inhibition level) (Chenopodium album): C (60 ≦ C < 80%) | Herbicidal activity Digiatria sanguinalis (inhibition level) (Digiatria sanguinalis): B (80 ≦ B < 90%) | Herbicidal activity Echinochloa crusgalli (inhibition level) (Echinochloa crusgalli): E (E < 50%) | Herbicidal activity Setaria viridis (inhibition level) (Setaria viridis): C (60 ≦ C < 80%)

CCCCSc1nc2cc(-n3nc(C)n(C(F)F)c3=O)c(F)cc2s1 [Compound 91]
Herbicidal activity Amaranthus retroflexus (inhibition level) (Amaranthus retroflexus): A (90 ≦ A ≦ 100%) | Herbicidal activity Brassica juncea (inhibition level) (Brassica juncea): A (90 ≦ A ≦ 100%) | Herbicidal activity Chenopodium album (inhibition level) (Chenopodium album): C (60 ≦ C < 80%) | Herbicidal activity Digiatria sanguinalis (inhibition level) (Digiatria sanguinalis): A (90 ≦ A ≦ 100%) | Herbicidal activity Echinochloa crusgalli (inhibition level) (Echinochloa crusgalli): A (90 ≦ A ≦ 100%) | Herbicidal activity Setaria viridis (inhibition level) (Setaria viridis): A (90 ≦ A ≦ 100%)

Cc1ccc([N+](=O)[O-])c(C[S+]([O-])c2nc3cc(-n4nc(C)n(C(F)F)c4=O)c(F)cc3s2)c1 (stereo not drawn) [Compound 106]
Herbicidal activity Amaranthus retroflexus (inhibition level) (Amaranthus retroflexus): D (50 ≦ D < 60%) | Herbicidal activity Brassica juncea (inhibition level) (Brassica juncea): B (80 ≦ B < 90%) | Herbicidal activity Chenopodium album (inhibition level) (Chenopodium album): A (90 ≦ A ≦ 100%) | Herbicidal activity Digiatria sanguinalis (inhibition level) (Digiatria sanguinalis): D (50 ≦ D < 60%) | Herbicidal activity Echinochloa crusgalli (inhibition level) (Echinochloa crusgalli): D (50 ≦ D < 60%) | Herbicidal activity Setaria viridis (inhibition level) (Setaria viridis): B (80 ≦ B < 90%)

Cc1ccccc1CSc1nc2cc(-n3nc(C)n(C(F)F)c3=O)c(F)cc2s1 [Compound 14]
Herbicidal activity Amaranthus retroflexus (inhibition level) (Amaranthus retroflexus): B (80 ≦ B < 90%) | Herbicidal activity Brassica juncea (inhibition level) (Brassica juncea): A (90 ≦ A ≦ 100%) | Herbicidal activity Chenopodium album (inhibition level) (Chenopodium album): C (60 ≦ C < 80%) | Herbicidal activity Digiatria sanguinalis (inhibition level) (Digiatria sanguinalis): C (60 ≦ C < 80%) | Herbicidal activity Echinochloa crusgalli (inhibition level) (Echinochloa crusgalli): B (80 ≦ B < 90%) | Herbicidal activity Setaria viridis (inhibition level) (Setaria viridis): C (60 ≦ C < 80%)

Cc1ccc(CS(=O)(=O)c2nc3cc(-n4nc(C)n(C(F)F)c4=O)c(F)cc3s2)cc1 [Compound 47]
Herbicidal activity Amaranthus retroflexus (inhibition level) (Amaranthus retroflexus): A (90 ≦ A ≦ 100%) | Herbicidal activity Brassica juncea (inhibition level) (Brassica juncea): A (90 ≦ A ≦ 100%) | Herbicidal activity Chenopodium album (inhibition level) (Chenopodium album): C (60 ≦ C < 80%) | Herbicidal activity Digiatria sanguinalis (inhibition level) (Digiatria sanguinalis): A (90 ≦ A ≦ 100%) | Herbicidal activity Echinochloa crusgalli (inhibition level) (Echinochloa crusgalli): B (80 ≦ B < 90%) | Herbicidal activity Setaria viridis (inhibition level) (Setaria viridis): C (60 ≦ C < 80%)

CC[S+]([O-])c1nc2cc(-n3nc(C)n(C(F)F)c3=O)c(F)cc2s1 (stereo not drawn) [Compound 113]
Herbicidal activity Amaranthus retroflexus (inhibition level) (Amaranthus retroflexus): B (80 ≦ B < 90%) | Herbicidal activity Brassica juncea (inhibition level) (Brassica juncea): A (90 ≦ A ≦ 100%) | Herbicidal activity Chenopodium album (inhibition level) (Chenopodium album): D (50 ≦ D < 60%) | Herbicidal activity Digiatria sanguinalis (inhibition level) (Digiatria sanguinalis): C (60 ≦ C < 80%) | Herbicidal activity Echinochloa crusgalli (inhibition level) (Echinochloa crusgalli): B (80 ≦ B < 90%) | Herbicidal activity Setaria viridis (inhibition level) (Setaria viridis): C (60 ≦ C < 80%)

Cc1nn(-c2cc3nc(SCc4cccc(Cl)c4)sc3cc2F)c(=O)n1C [Compound 32]
Herbicidal activity Amaranthus retroflexus (inhibition level) (Amaranthus retroflexus): A (90 ≦ A ≦ 100%) | Herbicidal activity Brassica juncea (inhibition level) (Brassica juncea): B (80 ≦ B < 90%) | Herbicidal activity Chenopodium album (inhibition level) (Chenopodium album): A (90 ≦ A ≦ 100%) | Herbicidal activity Digiatria sanguinalis (inhibition level) (Digiatria sanguinalis): A (90 ≦ A ≦ 100%) | Herbicidal activity Echinochloa crusgalli (inhibition level) (Echinochloa crusgalli): B (80 ≦ B < 90%) | Herbicidal activity Setaria viridis (inhibition level) (Setaria viridis): C (60 ≦ C < 80%)

CCOC(=O)C(C)[S+]([O-])c1nc2cc(-n3nc(C)n(C(F)F)c3=O)c(F)cc2s1 (stereo not drawn) [Compound 118]
Herbicidal activity Amaranthus retroflexus (inhibition level) (Amaranthus retroflexus): A (90 ≦ A ≦ 100%) | Herbicidal activity Brassica juncea (inhibition level) (Brassica juncea): D (50 ≦ D < 60%) | Herbicidal activity Chenopodium album (inhibition level) (Chenopodium album): B (80 ≦ B < 90%) | Herbicidal activity Digiatria sanguinalis (inhibition level) (Digiatria sanguinalis): C (60 ≦ C < 80%) | Herbicidal activity Echinochloa crusgalli (inhibition level) (Echinochloa crusgalli): D (50 ≦ D < 60%) | Herbicidal activity Setaria viridis (inhibition level) (Setaria viridis): C (60 ≦ C < 80%)

CC[S+]([O-])c1nc2cc(-n3nc(C)n(C(F)F)c3=O)c(Cl)cc2s1 (stereo not drawn) [Compound 115]
Herbicidal activity Amaranthus retroflexus (inhibition level) (Amaranthus retroflexus): B (80 ≦ B < 90%) | Herbicidal activity Brassica juncea (inhibition level) (Brassica juncea): A (90 ≦ A ≦ 100%) | Herbicidal activity Chenopodium album (inhibition level) (Chenopodium album): D (50 ≦ D < 60%) | Herbicidal activity Digiatria sanguinalis (inhibition level) (Digiatria sanguinalis): B (80 ≦ B < 90%) | Herbicidal activity Echinochloa crusgalli (inhibition level) (Echinochloa crusgalli): C (60 ≦ C < 80%) | Herbicidal activity Setaria viridis (inhibition level) (Setaria viridis): B (80 ≦ B < 90%)

Cc1ccc(CSc2nc3cc(-n4nc(C)n(C(F)F)c4=O)c(F)cc3s2)cc1 [Compound 15]
Herbicidal activity Amaranthus retroflexus (inhibition level) (Amaranthus retroflexus): A (90 ≦ A ≦ 100%) | Herbicidal activity Brassica juncea (inhibition level) (Brassica juncea): A (90 ≦ A ≦ 100%) | Herbicidal activity Chenopodium album (inhibition level) (Chenopodium album): B (80 ≦ B < 90%) | Herbicidal activity Digiatria sanguinalis (inhibition level) (Digiatria sanguinalis): C (60 ≦ C < 80%) | Herbicidal activity Echinochloa crusgalli (inhibition level) (Echinochloa crusgalli): B (80 ≦ B < 90%) | Herbicidal activity Setaria viridis (inhibition level) (Setaria viridis): B (80 ≦ B < 90%)

Cc1nn(-c2cc3nc(S(=O)(=O)Cc4ccc(F)cc4F)sc3cc2Cl)c(=O)n1C(F)F [Compound 45]
Herbicidal activity Amaranthus retroflexus (inhibition level) (Amaranthus retroflexus): A (90 ≦ A ≦ 100%) | Herbicidal activity Brassica juncea (inhibition level) (Brassica juncea): B (80 ≦ B < 90%) | Herbicidal activity Chenopodium album (inhibition level) (Chenopodium album): B (80 ≦ B < 90%) | Herbicidal activity Digiatria sanguinalis (inhibition level) (Digiatria sanguinalis): A (90 ≦ A ≦ 100%) | Herbicidal activity Echinochloa crusgalli (inhibition level) (Echinochloa crusgalli): E (E < 50%) | Herbicidal activity Setaria viridis (inhibition level) (Setaria viridis): C (60 ≦ C < 80%)

Cc1nn(-c2cc3nc([S+](C)[O-])sc3cc2F)c(=O)n1C(F)F (stereo not drawn) [Compound 119]
Herbicidal activity Amaranthus retroflexus (inhibition level) (Amaranthus retroflexus): B (80 ≦ B < 90%) | Herbicidal activity Brassica juncea (inhibition level) (Brassica juncea): E (E < 50%) | Herbicidal activity Chenopodium album (inhibition level) (Chenopodium album): B (80 ≦ B < 90%) | Herbicidal activity Digiatria sanguinalis (inhibition level) (Digiatria sanguinalis): C (60 ≦ C < 80%) | Herbicidal activity Echinochloa crusgalli (inhibition level) (Echinochloa crusgalli): E (E < 50%) | Herbicidal activity Setaria viridis (inhibition level) (Setaria viridis): C (60 ≦ C < 80%)

C#CCSc1nc2cc(-n3nc(C)n(C(F)F)c3=O)c(F)cc2s1 [Compound 130]
Herbicidal activity Amaranthus retroflexus (inhibition level) (Amaranthus retroflexus): A (90 ≦ A ≦ 100%) | Herbicidal activity Brassica juncea (inhibition level) (Brassica juncea): D (50 ≦ D < 60%) | Herbicidal activity Chenopodium album (inhibition level) (Chenopodium album): B (80 ≦ B < 90%) | Herbicidal activity Digiatria sanguinalis (inhibition level) (Digiatria sanguinalis): C (60 ≦ C < 80%) | Herbicidal activity Echinochloa crusgalli (inhibition level) (Echinochloa crusgalli): B (80 ≦ B < 90%) | Herbicidal activity Setaria viridis (inhibition level) (Setaria viridis): A (90 ≦ A ≦ 100%)

Cc1nn(-c2cc3nc(S(=O)(=O)Cc4cccc(Cl)c4)sc3cc2F)c(=O)n1C [Compound 36]
Herbicidal activity Amaranthus retroflexus (inhibition level) (Amaranthus retroflexus): D (50 ≦ D < 60%) | Herbicidal activity Brassica juncea (inhibition level) (Brassica juncea): C (60 ≦ C < 80%) | Herbicidal activity Chenopodium album (inhibition level) (Chenopodium album): D (50 ≦ D < 60%) | Herbicidal activity Digiatria sanguinalis (inhibition level) (Digiatria sanguinalis): C (60 ≦ C < 80%) | Herbicidal activity Echinochloa crusgalli (inhibition level) (Echinochloa crusgalli): C (60 ≦ C < 80%) | Herbicidal activity Setaria viridis (inhibition level) (Setaria viridis): D (50 ≦ D < 60%)

Cc1nn(-c2cc3nc(SCc4ccccc4)sc3cc2Cl)c(=O)n1C(F)F [Compound 2]
Herbicidal activity Amaranthus retroflexus (inhibition level) (Amaranthus retroflexus): A (90 ≦ A ≦ 100%) | Herbicidal activity Brassica juncea (inhibition level) (Brassica juncea): B (80 ≦ B < 90%) | Herbicidal activity Chenopodium album (inhibition level) (Chenopodium album): E (E < 50%) | Herbicidal activity Digiatria sanguinalis (inhibition level) (Digiatria sanguinalis): C (60 ≦ C < 80%) | Herbicidal activity Echinochloa crusgalli (inhibition level) (Echinochloa crusgalli): C (60 ≦ C < 80%) | Herbicidal activity Setaria viridis (inhibition level) (Setaria viridis): B (80 ≦ B < 90%)

CCOC(=O)CS(=O)(=O)c1nc2cc(-n3nc(C)n(C(F)F)c3=O)c(Br)cc2s1 [Compound 54]
Herbicidal activity Amaranthus retroflexus (inhibition level) (Amaranthus retroflexus): B (80 ≦ B < 90%) | Herbicidal activity Brassica juncea (inhibition level) (Brassica juncea): A (90 ≦ A ≦ 100%) | Herbicidal activity Chenopodium album (inhibition level) (Chenopodium album): C (60 ≦ C < 80%) | Herbicidal activity Digiatria sanguinalis (inhibition level) (Digiatria sanguinalis): C (60 ≦ C < 80%) | Herbicidal activity Echinochloa crusgalli (inhibition level) (Echinochloa crusgalli): B (80 ≦ B < 90%) | Herbicidal activity Setaria viridis (inhibition level) (Setaria viridis): D (50 ≦ D < 60%)
